Experimental data: patent US4894453A, “2-substituted alkoxy-3-substituted-pyrazines” (Toyo Jozo Kabushiki Kaisha, priority 1986, dated 1990)

Experiments:
[1] = test system: collagen-induced aggregation (rabbit platelet plasma); experiment: Platelet aggregation inhibitory action on collagen-induced aggregation; type: cell-based; conditions: Oryctolagus cuniculus, 0.05 h, collagen 2.5 μg/ml, 37° C., 3 min incubation, hydrochloride salt, read-out: inhibition ratio, collagen-induced platelet aggregation
Experimental: (§1) The pharmacological activity of the present compounds [1] is illustrated below. All the compounds [1] used in the pharmacological tests were tested in the form of the hydrochloride salt thereof.
(§2) 1. Platelet aggregation inhibition:
(§3) Sample solution containing a compound [1] (final concentration 500 or 100 μM) is added to rabbit platelet plasma to which was added 10% by volume of a 3.8% sodium citrate solution, and the mixture is incubated at 37° C. for 3 minutes. A platelet activation factor (PAF, final concentration 10-50 μg/ml) or collagen (final concentration 2.5 μg/ml) is added thereto as an aggregating agent, and platelet aggregation activity is measured with an aggregometer. The results of assays for PAF-induced aggregation are shown in Table 3, and those for collagen-induced aggregation are shown in Table 4, which tables show the strong platelet aggregation inhibitory activity of the compounds [1] of the present invention.

[2] = test system: lipoperoxide generation in rat cerebrum; experiment: Antioxidant activity (inhibition of lipoperoxide generation, method of Stocks et al.); type: biochemical; conditions: 100 μM; rat cerebrum supernatant, 37° C., 15 min, thiobarbituric acid, 532 nm; hydrochloride salt
Experimental: as §1
Antioxidant activity is determined according to the method of Stocks et al. [Clin. Sci. Mol. Med., 47: 215 (1974)]. Rat cerebrum is added to ice-cooled 40 mM phosphate saline buffer solution (PBS) (pH 7.4, 4 ml buffer per 1 g cerebrum), homogenized and centrifuged (1000×g, 4° C., 10 min.) to obtain a supernatant solution. The supernatant solution is diluted fivefold with the above ice-cooled PBS solution, and to a 0.9 ml aliquot thereof is added a sample containing a compound [1] (0.1 ml, final concentration 100 μM) dissolved in ethanol. The resultant mixture is incubated at 37° C. for 15 minutes, 35% perchloric acid (0.2 ml) is added, and the mixture is ice-cooled to stop the reaction and centrifuged (1300×g, 4° C., 10 min.). 0.5 ml thiobarbituric acid (5 g/lit. of 50% acetic acid) is added to the supernatant solution (1 ml), so as to measure its absorbancy at 532 nm. The amount of lipoperoxide thus generated is expressed as an amount of malondialdehyde.

[3] = test system: PAF-induced aggregation (rabbit platelet plasma); experiment: Platelet aggregation inhibitory action on PAF-induced aggregation; type: cell-based; conditions: Oryctolagus cuniculus, 0.05 h, PAF 10-50 μg/ml, 37° C., 3 min incubation, hydrochloride salt, read-out: inhibition ratio, PAF-induced platelet aggregation
Experimental: as §1, §2, §3

[4] = test system: PAF-induced aggregation (rabbit platelet plasma); experiment: as above; type: cell-based; conditions: Oryctolagus cuniculus, 0.05 h, PAF 10-50 μg/ml, 37° C., 3 min incubation, hydrochloride salt, read-out: inhibition ratio, PAF-induced platelet aggregation; remark: listed apart in the source
[5] = test system: blood flow, femoral artery / left back limb; experiment: Vasodilation activity, changes in blood flow in perfused left back limb of anesthetized dog; type: in vivo; conditions: 100 μg into right femoral artery; relative to increased blood flow by 30 μg papaverin intra-arterially = 100%; hydrochloride salt
Experimental: as §1
2. Vasodilation activity:
A dog, pretreated with morphine (1.5 mg/kg, sc) is anesthesized with urethane (450 mg/kg, iv) and α-chloralose (45 mg/kg, iv), and immobilized in the dosal position. Right femoral arterial blood is introduced into a left femoral artery via a perfusion pump, and Sterling's resistance is connected to the exosomatic circulatory system to perfuse blood to a left back limb at constant pressure. The perfusion pressure is set at a value slightly higher than that of the average blood pressure of the animal. Sample (100 μg) dissolved in physiological saline solution is administered to a right femoral artery, and changes in blood flow are measured. Vasodilation activity is measured as a relative activity, by defining as 100% the increased rate of blood flow when 30 μg papaverin is administered intra-arterially. The results are shown in Table 5, where it will be seen that the compounds [1] of the present invention have strong vasodilation activity.

| SMILES | inhibition at 100 µM [1] [%] | inhibition ratio, lipoperoxide generation (antioxidant activity) [2] [%] | inhibition at 100 µM [3] [%] | also measured |
| --- | --- | --- | --- | --- |
| CCCCCCCCCCc1nc2c(nc1OCCN1CCOCC1)CCCC2 [Compound 585] | 41 | 62 |  |  |
| CCCCCCCCCc1nc2c(nc1OCCN1CCN(CCCC)CC1)CCCC2 [Compound 580] | 80 | 77 | 94 |  |
| CCCCCCCCCCc1nc2c(nc1OCCN1CCN(CCCC)CC1)CCCC2 [Compound 587] | 79 | 65 | 91 |  |
| Cc1nc(C)c(OCC(=O)N2CCCCC2)nc1C [Compound 067] |  |  |  | inhibition at 300 µM [4]: 53% |
| CCCCCCCCCc1nc2c(nc1OCCN1CCN(Cc3ccc(OC)cc3)CC1)CCCC2 [Compound 582] | 58 | 82 |  |  |
| CCc1nc(OCCN2CCCCC2)c(C(C)C)nc1CC [Compound 550] | 85 |  | 56 |  |
| Cc1nc(C)c(OCC(=O)NCCN2CCN(Cc3ccccc3Cl)CC2)nc1C [Compound 137] |  |  | 76 | vasodilation activity [5]: 216% |
| CCCCCc1nc2c(nc1OCCN1CCCN(Cc3ccc(F)cc3)CC1)CCCC2 [Compound 562] |  | 65 | 45 |  |
| CCc1nc(C)c(C)nc1OC(C(=O)NCCN1CCN(Cc2ccc([N+](=O)[O-])cc2)CC1)c1ccccc1 (stereo not shown) [Compound 344] |  | 48 | 44 |  |
| CCCCCCCCc1nc2c(nc1OCCN1CCN(CCCC)CC1)CCCC2 [Compound 573] | 58 | 56 | 86 |  |
| CCc1nc(CC(C)C)c(OCCN2CCN(Cc3ccccc3)CC2)nc1CC [Compound 556] | 40 |  | 51 |  |
| CCc1nc(C)c(C)nc1OCCN1CCCN(Cc2ccc([N+](=O)[O-])cc2)CC1 [Compound 502] |  | 69 | 81 |  |
| Cc1nc(C)c(OCC(=O)N2CCOCC2)nc1C [Compound 075] |  |  |  | vasodilation activity [5]: 89% |
| Cc1nc(OCCN2CCCN(Cc3ccc(Cl)cc3)CC2)c(C(C)C)nc1C [Compound 547] | 56 |  |  |  |
| Cc1nc(C)c(OCC(=O)NCCN2CCN(Cc3ccc(Cl)cc3)CC2)nc1C [Compound 135] |  |  |  | inhibition at 500 µM ([3]; 500 μM): 77%; vasodilation activity [5]: 242% |
| CCc1nc(C)c(C)nc1OC(C(=O)NCCN1CCCN(Cc2ccc(F)cc2)CC1)c1ccccc1 (stereo not shown) [Compound 347] |  | 51 | 59 |  |
| CCCCCCCCCCc1nc2c(nc1OCCN1CCN(CCO)CC1)CCCC2 [Compound 588] | 78 | 65 | 64 |  |
| Cc1nc(C)c(OCC(=O)NCCN2CCN(Cc3ccccc3)CC2)nc1C [Compound 136] |  |  | 50 | vasodilation activity [5]: 204% |
